What all share (assay): relative viability (nuclei count vs DMSO), 5 days (fraction); higher = more cells survive
Compound in experiment [1]: OCc1c[nH]c2ccccc12 [Indole-3-carbinol] + COc1cc2c(Oc3ccc(NC(=O)C4(C(=O)Nc5ccc(F)cc5)CC4)cc3F)ccnc2cc1OCCCN1CCOCC1 [Foretinib] (partner 0.25 µM)
The essentials: (§1)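 One day after seeding in 1536-well plates, lung cancer cell lines were dosed by pin tool. Dosing was either single-drug or a fixed anchor-drug dose plus five library-drug doses (not always all listed) in √10 steps. After 5 days, nuclei were stained in one fix-and-stain step and counted on 4× images, and relative viability is the nuclei count of treated wells over that of vehicle wells, given as the median of duplicate plates.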

Compound in experiment [2]: OCc1c[nH]c2ccccc12 [Indole-3-carbinol] + Nc1nc2[nH]cc(CCc3ccc(C(=O)N[C@@H](CCC(=O)O)C(=O)O)cc3)c2c(=O)[nH]1 [Pemetrexed] (partner 0.2 µM)
In a few lines:
as §1

Compound in experiment [3]: OCc1c[nH]c2ccccc12 [Indole-3-carbinol] + CC1(C)CCC(c2ccc(Cl)cc2)=C(CN2CCN(c3ccc(C(=O)NS(=O)(=O)c4ccc(N[C@H](CCN5CCOCC5)CSc5ccccc5)c(S(=O)(=O)C(F)(F)F)c4)cc3)CC2)C1 [Navitoclax] (partner 0.5 µM)
The essentials:
as §1

Compound in experiment [4]: OCc1c[nH]c2ccccc12 [Indole-3-carbinol] + COc1cccc2cc(-c3nc([C@H]4CC[C@H](C(=O)O)CC4)n4ncnc(N)c34)[nH]c12 [OSI-027] (partner 0.5 µM)
The essentials: as §1

Compound in experiment [5]: OCc1c[nH]c2ccccc12 [Indole-3-carbinol] + Cc1cc(Nc2cc(N3CCN(C)CC3)nc(Sc3ccc(NC(=O)C4CC4)cc3)n2)n[nH]1 [Tozasertib] (partner 0.1 µM)
The essentials:
as §1

Take PC-14: the relative viability in experiment [1] (first compound 0.253 µM) amounted to 0.961; in experiment [1] (first compound 0.8 µM), 0.842; in experiment [1] (first compound 2.53 µM), 0.987; in experiment [1] (first compound 8 µM), 0.913; in experiment [2] (first compound 0.253 µM), 0.14; in experiment [2] (first compound 0.8 µM), 0.127. Further, the relative viability is 0.13 in experiment [2] (first compound 2.53 µM); 0.146 in experiment [2] (first compound 8 µM); 1.01 in experiment [3] (first compound 0.253 µM); 1.1 in experiment [3] (first compound 0.8 µM); 1.07 in experiment [3] (first compound 2.53 µM); 0.961 in experiment [3] (first compound 8 µM). Moreover, the relative viability came to 0.756 in experiment [4] (first compound 0.253 µM); 0.828 in experiment [4] (first compound 0.8 µM); 0.873 in experiment [4] (first compound 2.53 µM); 0.706 in experiment [4] (first compound 8 µM); 0.578 in experiment [5] (first compound 0.253 µM); 0.585 in experiment [5] (first compound 0.8 µM). Also, the relative viability in experiment [5] (first compound 2.53 µM) was 0.633; in experiment [5] (first compound 8 µM) it was 0.554.
On to RERF-LC-KJ, for which the relative viability in experiment [1] (first compound 0.253 µM) came to 0.873; in experiment [1] (first compound 0.8 µM), 0.932; in experiment [1] (first compound 2.53 µM), 0.815; in experiment [1] (first compound 8 µM), 0.819; in experiment [2] (first compound 0.253 µM) it was 0.47; in experiment [2] (first compound 0.8 µM), 0.461. Moreover, the relative viability in experiment [2] (first compound 2.53 µM) was found to be 0.482; in experiment [2] (first compound 8 µM), 0.466; in experiment [3] (first compound 0.253 µM), 1.12; in experiment [3] (first compound 0.8 µM), 0.907; in experiment [3] (first compound 2.53 µM), 0.971; in experiment [3] (first compound 8 µM) it was 1.04. In addition, the relative viability in experiment [4] (first compound 0.253 µM) is 0.556; in experiment [4] (first compound 0.8 µM), 0.545; in experiment [4] (first compound 2.53 µM), 0.585; in experiment [4] (first compound 8 µM), 0.601; in experiment [5] (first compound 0.253 µM), 0.441; in experiment [5] (first compound 0.8 µM) it was 0.518. The figures for the relative viability in experiment [5] (first compound 2.53 µM) and in experiment [5] (first compound 8 µM) were 0.546 and 0.509, respectively.
For SK-LU-1, the relative viability in experiment [1] (first compound 0.253 µM) was 0.851; in experiment [1] (first compound 0.8 µM), 0.836; in experiment [1] (first compound 2.53 µM) it was 0.911; in experiment [1] (first compound 8 µM) it was 0.763; in experiment [2] (first compound 0.253 µM), 1.02; in experiment [2] (first compound 0.8 µM) it was 1.03. For the same cell line, the relative viability came to 1.09 in experiment [2] (first compound 2.53 µM); 1.02 in experiment [2] (first compound 8 µM); 0.899 in experiment [3] (first compound 0.253 µM); 0.783 in experiment [3] (first compound 0.8 µM); 0.795 in experiment [3] (first compound 2.53 µM); 0.653 in experiment [3] (first compound 8 µM). Also, the relative viability in experiment [4] (first compound 0.253 µM) is 0.359; in experiment [4] (first compound 0.8 µM), 0.322; in experiment [4] (first compound 2.53 µM) it was 0.382; in experiment [4] (first compound 8 µM) it was 0.314; in experiment [5] (first compound 0.253 µM), 0.303; in experiment [5] (first compound 0.8 µM) it was 0.356. The relative viability in experiment [5] (first compound 2.53 µM) is 0.367; in experiment [5] (first compound 8 µM) it was 0.302.
As to SK-MES-1, the relative viability in experiment [1] (first compound 0.253 µM) amounted to 1.03; in experiment [1] (first compound 0.8 µM) it was 0.922; in experiment [1] (first compound 2.53 µM) it was 0.946; in experiment [1] (first compound 8 µM), 0.882; in experiment [2] (first compound 0.253 µM), 0.926; in experiment [2] (first compound 0.8 µM), 1.01. Besides, the relative viability was determined as 0.927 in experiment [2] (first compound 2.53 µM); 0.939 in experiment [2] (first compound 8 µM); 1.28 in experiment [3] (first compound 0.253 µM); 1.3 in experiment [3] (first compound 0.8 µM); 1.18 in experiment [3] (first compound 2.53 µM); 1.18 in experiment [3] (first compound 8 µM). Also, the relative viability in experiment [4] (first compound 0.253 µM) turned out to be 0.596; in experiment [4] (first compound 0.8 µM), 0.642; in experiment [4] (first compound 2.53 µM) it was 0.588; in experiment [4] (first compound 8 µM), 0.537; in experiment [5] (first compound 0.253 µM) it was 0.904; in experiment [5] (first compound 0.8 µM), 1.04. Besides, the relative viability in experiment [5] (first compound 2.53 µM) turned out to be 0.932; in experiment [5] (first compound 8 µM), 0.907.
In the case of SW 1573, the relative viability in experiment [1] (first compound 0.253 µM) amounted to 1.12; in experiment [1] (first compound 0.8 µM), 1.04; in experiment [1] (first compound 2.53 µM) it was 1.02; in experiment [1] (first compound 8 µM), 0.812; in experiment [2] (first compound 0.253 µM), 0.803; in experiment [2] (first compound 0.8 µM) it was 0.846. For the same cell line, the relative viability in experiment [2] (first compound 2.53 µM) is 0.881; in experiment [2] (first compound 8 µM), 0.975; in experiment [3] (first compound 0.253 µM), 1.1; in experiment [3] (first compound 0.8 µM), 1.13; in experiment [3] (first compound 2.53 µM) it was 1.03; in experiment [3] (first compound 8 µM) it was 0.901. The relative viability stood at 0.639 in experiment [4] (first compound 0.253 µM); 0.593 in experiment [4] (first compound 0.8 µM); 0.804 in experiment [4] (first compound 2.53 µM); 0.521 in experiment [4] (first compound 8 µM); 0.187 in experiment [5] (first compound 0.253 µM); 0.233 in experiment [5] (first compound 0.8 µM). Also, the relative viability in experiment [5] (first compound 2.53 µM) was found to be 0.135; in experiment [5] (first compound 8 µM), 0.176.
In the case of UMC-11, the relative viability in experiment [1] (first compound 0.253 µM) was determined as 0.914; in experiment [1] (first compound 0.8 µM), 1.1; in experiment [1] (first compound 2.53 µM) it was 1.05; in experiment [1] (first compound 8 µM), 1.09; in experiment [2] (first compound 0.253 µM) it was 0.787; in experiment [2] (first compound 0.8 µM), 0.757. Besides, the relative viability in experiment [2] (first compound 2.53 µM) amounted to 0.751; in experiment [2] (first compound 8 µM) it was 0.717; in experiment [3] (first compound 0.253 µM), 0.259; in experiment [3] (first compound 0.8 µM), 0.308; in experiment [3] (first compound 2.53 µM), 0.329; in experiment [3] (first compound 8 µM), 0.325. Further, the relative viability in experiment [4] (first compound 0.253 µM) came to 0.443; in experiment [4] (first compound 0.8 µM), 0.495; in experiment [4] (first compound 2.53 µM) it was 0.464; in experiment [4] (first compound 8 µM), 0.472; in experiment [5] (first compound 0.253 µM) it was 0.196; in experiment [5] (first compound 0.8 µM), 0.202. The relative viability was 0.187 in experiment [5] (first compound 2.53 µM) and 0.204 in experiment [5] (first compound 8 µM).

Values taken from the supplement of paper PMC10307832.
